Type in all cases: in vivo
One test concerns Spodoptera frugiperda. Put plainly: Spodoptera frugiperda spray test. The following applies: in Zea mays, 168 h, read-out: activity (mortality). The essentials:
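Larvae of fall armyworm placed on dried maize leaf sections previously sprayed with emulsified compound (acetone/DMF solvent, water with 1000 ppm emulsifier). Percent of caterpillars killed recorded on day 7, 0–100% scale.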

The subject of test [1] is Culex quinquefasciatus strain P00. Description: Culex quinquefasciatus test (CULXFA surface treatment & contact assay). The following applies: 30 minutes exposure, 24 hours after contact, read-out: efficacy (mortality). How it is done:
Culex quinquefasciatus Test (CULXFA Surface Treatment & Contact Assay)
(§1) Solvent: Aceton+2000 ppm rapeseed oil methyl ester (RME)
In order to produce a sufficient, active ingredient containing solution it is necessary to solve the test compound in the solvent-mix (acetone at 2 mg/mL/RME 2 000 ppm). This solution is pipetted onto a glazed tile and after evaporation of the acetone, adult mosquitoes of the species Culex quinquefasciatus strain P00 are placed onto the dried surface. The exposure time is 30 minutes.
(§2) Mortality in percent (%) is determined 24 hours after contact of the insects to the treated surface. 100% mortality means that all tested insects are dead, whereas 0% means that no insect died.

The subject of a further test is Rhipicephalus sanguineus. Description: Rhipicephalus sanguineus in-vitro contact test, adult brown dog ticks (RHIPSA Contact). The following applies: 5 μg/cm^2 (=500 g/ha), after 48 hours, read-out: activity (efficacy, ticks dead or moribund). The essentials:
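Acetone solution coated onto glass tube walls; 900 ppm gives 5 μg/cm^2. After drying, 5-10 adult ticks per tube kept at room temperature for 48 h, then placed on a 45-50° C heating plate up to 5 min; ticks unable to climb away counted dead or moribund, efficacy as % affected.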

The test system of test [2] is Aedes aegypti strain MONHEIM. Description: Aedes aegypti test (AEDSAE surface treatment & contact assay). The following applies: 30 minutes exposure, 24 hours after contact, read-out: efficacy (mortality).
In test [3] the test system is Musca domestica strain WHO-N. Description: Musca domestica test (MUSCDO surface treatment & contact assay). The conditions noted are these: surface concentration 20 mg/m^2, glazed tile, 30 minutes exposure, 24 hours after contact, read-out: efficacy (mortality). How it is done: Musca domestica Test (MUSCDO Surface Treatment & Contact Assay)
as §1
In order to produce a sufficient, active ingredient containing solution it is necessary to solve the test compound in the solvent-mix (acetone at 2 mg/mL/RME 2000 ppm). This solution is pipetted onto a glazed tile and after evaporation of the acetone, adult flies of the species Musca domestica strain WHO—N are placed onto the dried surface. The exposure time is 30 minutes.
as §2

The test system of another test is Ctenocephalides felis. Put plainly: Ctenocephalides felis in-vitro contact test, adult cat flea. The conditions noted are these: 5 μg/cm^2 (=500 g/ha), after 48 hours, read-out: activity (efficacy, fleas dead or moribund). The essentials:
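Acetone solutions coated onto inner walls of glass tubes; 900 ppm gives 5 μg/cm^2. After drying, 5-10 adult Ctenocephalides felis per tube held 48 h at room temperature. Fleas then placed on 45-50° C. plate for up to 5 min; those unable to climb away scored dead or moribund, efficacy as % dead/moribund.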

The subject of test [4] is Rhipicephalus microplus (strain Parkhurst, resistant against synthetic pyrethroids). Description: Rhipicephalus microplus in-vitro contact test, larval cattle tick (BOOPMI Contact). The conditions noted are these: 5 μg/cm^2 (=500 g/ha), after 48 hours, read-out: activity (efficacy, larvae dead or moribund). The essentials:
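Efficacy, expressed as percentage of larvae dead or moribund, is judged by negative geotactic behaviour 48 h after larvae (20-50 per tube) enter tubes whose inner walls carry a dried acetone film of compound, 5 μg/cm² at 900 ppm. Incubation: horizontal, 27 °C, 85% relative humidity.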

The mark [5] stands for this setting: surface concentration 4 mg/m^2, glazed tile.
Setting [6] is: surface concentration 20 mg/m^2, glazed tile.

Broadly, the mortality is the percentage killed.

With `C[C@H](Nc1nc2cc(C(F)(F)F)c(Cl)cc2o1)c1ncnn1-c1ncccn1` [Example I-001, 6-chloro-N-{(1S)-1-[1-(pyrimidin-2-yl)-1H-1,2,4-triazol-5-yl]ethyl}-5-(trifluoromethyl)-1,3-benzoxazol-2-amine], in the test with Spodoptera frugiperda, the mortality at 100 g/ha was 100%. Further, in the test with Spodoptera frugiperda, the mortality at 500 g/ha stood at 100%. Further, the mortality at 4 mg/m2 in test [1] (setting [5]) was 90 to 100%; in test [2] (setting [5]), 85 to 100%. The mortality at 20 mg/m2 in test [1] (setting [6]), in test [2] (setting [6]) and in test [3] was 90 to 100% in each case. For the same compound, the pest or weed control at 5 µg/cm2, 5 µg/cm2 in the test on Rhipicephalus sanguineus and in the test with Ctenocephalides felis was 100% throughout. In addition, the pest or weed control at 5 µg/cm2 in test [4] amounted to 100%.
